Experimental data reported in patent publication US9125912B1, “Method of treating ulcerative colitis” (KING SAUD UNIVERSITY, priority 2015, dated 2015).

Tested on: ulcerative colitis induced by acetic acid
Experiment: Ulcerative colitis induced by acetic acid in rats, macroscopic parameters
Type: in vivo, Male Wistar rats
Conditions: from ulcer index, oral once daily for 5 days before induction, extracts 400 mg/kg, volatile oil 50 mg/kg, dexamethasone 0.1 mg/kg
From the text: The extracts (total alcohol extract, total phenolic contents and volatile oil) of the three plants under investigation were freshly suspended in distilled water just before administration by the aid of Tween 80.
The extracts of Ocimum americanum, Ocimum basilicum and Ocimum basilicum var. thyrsiflora were independently administered to rats five days prior to ulcer induction. In detail, twelve experimental groups, each of 6 Male Wistar rats were used. Rats of groups 1 and 2 received the vehicle (5 mL/kg) and served as normal control and control colitis groups. […] Rats of groups 4-12 received the volatile oil extract, the total alcohol extract and the total phenolic extract of each of the three plants. Doses of 400 mg/kg of the total alcohol extract and the phenolic content were administered. Doses of 50 mg/kg of the volatile oil were administered. All medications were administered orally, once daily for 5 successive days and the last dose was administered 2 hours before colitis induction.
Animals were fasted overnight, with access to water ad libitum. Under ether anesthesia a solution of 2 mL (4%, v/v) acetic acid in saline was slowly infused into the colon through the polyethylene catheter 2 mm diameter that was inserted into the lumen of the colon via the anus to a distance of 8 cm. […]
The colon specimens were weighted and wet weight/length ratio was calculated for all the rats. The specimens were examined under a dissecting microscope and the lesion scores were quantified by scoring system (0-5).
Ulcer area was measured using plane glass square. Each cell on the glass square was 1 mm^2 in area and the number of cells was counted and the ulcer area was determined for each colon.
Ulcer index (UI) was measured by summing the lesion score and the ulcer area for each colon specimen. The curative ratio was determined according to the formula: Curative ratio=Control UI−Test UI/Control UI×100.
Data were expressed as mean±S. D. Statistical analysis was done by using SPSS 14. Statistical significance of differences between two means was assessed by unpaired Student's ‘t’ test. […]

For `C[C@@H]1C[C@H]2[C@@H]3CCC4=CC(=O)C=C[C@]4(C)[C@@]3(F)[C@@H](O)C[C@]2(C)[C@@]1(O)C(=O)CO` [Dexamethasone], the “% Protection from control colitis” value was 71.54%, the “% Protection from control colitis” value (listed as dexamesthasone) was “about 71.54%” and the “% Protection from control colitis” value (listed as dexamethasone) was 71.54%.
